Laboratory results from US5354748A, “Oral antibacterial compositions and method for the improvement of gastrointestinal absorption of penem or carbapenem antibiotics” (Suntory Limited, priority 1991, dated 1994).
Read-outs that look alike come from different tables or passages of the source.

Key:
[1] = Plasma concentration and urinary excretion of penem in dogs, capsules with glutathione (Example 7); type: in vivo; settings: dog, po, 75 mg; for AUC at 4 h / Cmax: plasma
Procedure: Namely, the penemcarboxylate and glutathione were mixed in amounts of 75 mg (titer) and 75, 15 or 3.75 mg, respectively, per capsule. The resultant mixed powder was filled in a capsule. Capsules were prepared in the manner described above.

[2] = Plasma concentration of penem in rats, oral penem with oral cilastatin (Example 5); type: in vivo, Sprague-Dawley male rats; settings: rat; for AUC at 1.5 h / Cmax: plasma, po, 57.1 mg/kg, oral 57.1 mg (titer)/Kg; for Cmax: read-out: Highest concentration in plasma
Procedure: (§1) Seven-week-old Sprague-Dawley male rats were orally administered with 57.1 mg (titer)/Kg of sodium (1'R,2"R,5R,6S)-6-(1'-hydroxyethyl)-2-(2"-tetrahydrofuranyl)penem-3-carboxylate 2.5 hydrate. At the same time, cilastatin was orally administered at 7.17, 0.717 or 0.0717 mg/Kg. The blood was collected during the period of from 0.1 to 1.5 hours after the administration. The concentrations of the free acid of the penem in plasma samples were measured by high performance liquid chromatography (HPLC) to determine the highest concentration in plasma and the area under the plasma concentration:time curve (AUC).

[3] = Plasma concentration of penem in rats, oral penem with oral N-acetyl-L-cysteine (Example 8); type: in vivo, Sprague-Dawley male rats; settings: rat, 57.1 mg/kg, oral 57.1 mg (titer)/Kg
Procedure: Seven-week-old Sprague-Dawley male rats were orally administered with 57.1 mg (titer)/Kg of sodium (1'R,2"R,5R,6S)-6-(1'-hydroxyethyl)-2-(2"-tetrahydrofuranyl)penem-3-carboxylate 2.5 hydrate. At the same time, N-acetyl-L-cysteine was orally administered at 57.1 mg/Kg. The blood was collected during the period of from 0.1 to 2.0 hours after the administration.
The concentrations of the free acid of the penem in plasma samples were measured by high performance liquid chromatography (HPLC) to determine the highest concentration in plasma and the area under the plasma concentration: time curve (AUC).

[4] = Oral absorption of penem in rats with simultaneous administration of cilastatin (Example 3); type: in vivo, Sprague-Dawley male rats; settings: rat; for AUC at 2 h / Cmax / bioavailability: plasma, po, 57.1 mg/kg, oral 57.1 mg (titer)/Kg; for bioavailability: read-out: Absorption (Oral Absorption Percentage A)
Procedure: Those compositions were separately and orally administered to seven-week-old, Sprague-Dawley male rats to give a dose of 57.1 mg (titer)/Kg in terms of the penem carboxylate. The blood was drawn from the femoral artery via a polyethylene catheter over 2.0 hours after the administration.

[5] = Plasma concentration of penem in rats, oral penem with oral glutathione (Example 6); type: in vivo, Sprague-Dawley male rats; settings: rat; for AUC at 2 h / Cmax: plasma, po, 57.1 mg/kg, oral 57.1 mg (titer)/Kg
Procedure: as §1, with “glutathione” for “cilastatin”, “57.1” for “7.17, 0.717”, “5.71” for “0.0717”, “2.0” for “1.5”

[6] = dog, in vivo
Procedure: Capsules were prepared by filling capsules with a 12.6:1 or 126:1 (by molar ratio) mixture of sodium (1'R,2"R,5R,6S)-6-(1'-hydroxyethyl)-2-(2"-tetrahydrofuranyl)penem-3-carboxylate 2.5 hydrate and cilastatin, namely, with a powder mixture consisting of 75 mg of the penem carboxylate and 7.5 or 0.75 mg of cilastatin per capsule. One of the capsules was orally administered to matured dogs. The blood was collected during the period of from 0.25 to 4 hours after the administration, and the concentrations of the free acid of the penem in plasma samples were measured by HPLC. Further, urine samples were collected until 24 hours after the administration and the concentrations of the free acid of the penem in the urine samples were measured by HPLC.
The area under the concentration:time curve (AUCpO) Of the compound contained in the plasma after its oral administration was compared to the area under the concentration:time curve (AUCiv) when the penemcarboxylate alone was intravenously administered at 10 mg/Kg and, assuming AUCiv be 100%, the percentage of AUCpo was calculated in accordance with the following formula and recorded as Oral Absorption Percentage A. Similarly, assuming that the percentage of excretion of the above penemcarboxylate into urine (Uiv) upon its intravenous administration at 10 mg/Kg be 100%, Oral Absorption Percentage B was calculated in accordance with the following formula from the percentage of excretion of the penemcarboxylate into urine upon its oral administration (Upo).
Oral absorption A (%)=AUCpo/AUCiv×10/75×100
Oral absorption B (%)=Upo/Uiv×100

[7] = in vivo; parameters: species or system Sprague-Dawley male rats; settings: rat, plasma, iv, 11.4 mg/kg, intravenous penem 11.4 mg (titer)/Kg
Procedure: The blood was collected during the period of from 0.1 to 1.5 hours after the administration. The concentrations of the free acid of the penem in plasma samples were measured by high performance liquid chromatography (HPLC) to determine the area under the plasma concentration:time curve (AUC).

[8] = single administration (penem alone)
[9] = single administration (penem alone), read-out: Highest concentration in plasma

## C[C@@H](O)[C@H]1C(=O)N2C(C(=O)O)=C([C@H]3CCCO3)S[C@H]12 [sodium (1'R,2"R,5R,6S)-6-(1'-hydroxyethyl)-2-(2"-tetrahydrofuranyl)penem-3-carboxylate 2.5 hydrate]
[1]; oral capsule 75 mg (titer), penem:glutathione molar ratio 1.1:1
  AUC at 4 h: 33700 ng·h/mL
[1]; oral capsule 75 mg (titer), penem:glutathione molar ratio 1.1:1, read-out: Highest concentration in plasma
  Cmax: 22700 ng/mL
[1]; oral, single administration (penem alone), read-out: Highest concentration in plasma
  Cmax: 11600 ng/mL
[1]; [8]
  AUC at 4 h: 17700 ng·h/mL
[1]; urine, oral, single administration (penem alone), up to 24 hours, read-out: Excretion into urine
  dose excreted at 24 h: 16.7%
[2]; oral, at each cilastatin dosage (7.17, 0.717, 0.0717 mg/Kg)
  Increase of AUC relative to single administration: 2.8-4.8 times
[2]; cilastatin 0 (penem alone)
  AUC at 1.5 h: 4420 ng·h/mL
  Cmax: 4810 ng/mL
[2]; cilastatin 0.0717 mg/Kg oral
  AUC at 1.5 h: 12200 ng·h/mL
  Cmax: 6890 ng/mL
[2]; cilastatin 0.717 mg/Kg oral
  AUC at 1.5 h: 21100 ng·h/mL
  Cmax: 8680 ng/mL
[2]; cilastatin 7.17 mg/Kg oral
  AUC at 1.5 h: 19600 ng·h/mL
  Cmax: 12700 ng/mL
[3]; penem:N-acetyl-L-cysteine molar ratio 0.6:1
  AUC at 2 h: 5240 ng·h/mL
[3]; penem:N-acetyl-L-cysteine molar ratio 0.6:1, read-out: Highest concentration in plasma
  Cmax: 6790 ng/mL
[3]; [8]
  AUC at 2 h: 2520 ng·h/mL
[3]; [9]
  Cmax: 3290 ng/mL
[4]; oral, cilastatin 1/2000 of the penem carboxylate
  Increase of oral absorption percentage relative to single administration: 2.5 times
[4]; penem:cilastatin molar ratio 1:1
  AUC at 2 h: 25900 ng·h/mL
[4]; penem:cilastatin molar ratio 1:1, read-out: Highest concentration in plasma
  Cmax: 12400 ng/mL
[4]; penem:cilastatin molar ratio 1:1, vs AUCiv
  bioavailability: 114%
[4]; penem:cilastatin molar ratio 10:1
  AUC at 2 h: 19600 ng·h/mL
[4]; penem:cilastatin molar ratio 10:1, read-out: Highest concentration in plasma
  Cmax: 12700 ng/mL
[4]; penem:cilastatin molar ratio 10:1, vs AUCiv
  bioavailability: 86.3%
[4]; penem:cilastatin molar ratio 100:1
  AUC at 2 h: 21100 ng·h/mL
[4]; penem:cilastatin molar ratio 100:1, read-out: Highest concentration in plasma
  Cmax: 8680 ng/mL
[4]; penem:cilastatin molar ratio 100:1, vs AUCiv
  bioavailability: 93%
[4]; penem:cilastatin molar ratio 300:1
  AUC at 2 h: 18300 ng·h/mL
[4]; penem:cilastatin molar ratio 300:1, read-out: Highest concentration in plasma
  Cmax: 7890 ng/mL
[4]; penem:cilastatin molar ratio 300:1, vs AUCiv
  bioavailability: 80.3%
[4]; penem:cilastatin molar ratio 600:1
  AUC at 2 h: 14900 ng·h/mL
[4]; penem:cilastatin molar ratio 600:1, read-out: Highest concentration in plasma
  Cmax: 8080 ng/mL
[4]; penem:cilastatin molar ratio 600:1, vs AUCiv
  bioavailability: 65.6%
[4]; penem:cilastatin molar ratio 1000:1
  AUC at 2 h: 12200 ng·h/mL
[4]; penem:cilastatin molar ratio 1000:1, read-out: Highest concentration in plasma
  Cmax: 6890 ng/mL
[4]; penem:cilastatin molar ratio 1000:1, vs AUCiv
  bioavailability: 53.7%
[4]; penem:cilastatin molar ratio 2000:1
  AUC at 2 h: 10900 ng·h/mL
[4]; penem:cilastatin molar ratio 2000:1, read-out: Highest concentration in plasma
  Cmax: 7690 ng/mL
[4]; penem:cilastatin molar ratio 2000:1, vs AUCiv
  bioavailability: 48.1%
[4]; [8]
  AUC at 2 h: 4420 ng·h/mL
[4]; [9]
  Cmax: 4810 ng/mL
[4]; single administration (penem alone), vs AUCiv
  bioavailability: 19.4%
[5]; oral, glutathione 1/11 of the penem
  Increase of AUC relative to penem alone: 1.2 times
[5]; penem:glutathione molar ratio 1.1:1
  AUC at 2 h: 6160 ng·h/mL
[5]; penem:glutathione molar ratio 1.1:1, read-out: Highest concentration in plasma
  Cmax: 5840 ng/mL
[5]; penem:glutathione molar ratio 11:1
  AUC at 2 h: 5540 ng·h/mL
[5]; penem:glutathione molar ratio 11:1, read-out: Highest concentration in plasma
  Cmax: 5030 ng/mL
[5]; [8]
  AUC at 2 h: 4570 ng·h/mL
[5]; [9]
  Cmax: 4340 ng/mL
[6]
  Increase of oral absorption percentage (from AUC) relative to penemcarboxylate alone: 2.3 times
  Oral absorption A: 33.9%
[6]; 1440 min
  Increase of oral absorption percentage (from excretion into urine) relative to penemcarboxylate alone: 2.3 times
[6]; 24 h
  Oral absorption B: 38.6%
[6]; po
  Highest concentration in plasma: 11.86 µg/mL
[6]; po, 4 h
  AUC: 18620 ng·h/mL
[6]; po, 24 h
  Excretion into urine: 16.58%
[7]; cilastatin 0 (penem alone)
  AUC at 1.5 h: 7170 ng·h/mL
[7]; cilastatin 0.0717 mg/Kg oral
  AUC at 1.5 h: 6860 ng·h/mL
[7]; cilastatin 0.717 mg/Kg oral
  AUC at 1.5 h: 5670 ng·h/mL
[7]; cilastatin 7.17 mg/Kg oral
  AUC at 1.5 h: 6740 ng·h/mL
